For assay [1], the system named is AKR-2B cells. Nature of the assay: Smad3-regulated biological responses: scratch assays and soft agar colony formation. Format: cell-based. The conditions noted are these: FIGS. 4C and 4D: scratch assay (5 ng/mL TGFβ, 24 hours) and soft agar. The procedure:
FIGS. 4A-E. A point mutant of TAT-SH3-2 abolishes the inhibitory action on Smad3 responses. (A) Schematic depicting TAT-SNX9(SH3) fusion polypeptide constructs (Left). * in SH3-2M (mutant) reflects G to V mutations at amino acids 36-38. His pull down of pSmad3 bound to TAT-SNX9(SH3) fusion polypeptides was performed as in FIG. 3A (Middle). AKR-2B cells were transduced for 90 minutes with 1.5 μM of TAT-SH3-2, TAT-SH3-2M, or TAT-LC. Western analysis was performed for the indicated proteins following 24 hour treatment in the absence (−) or presence (+) of TGFβ (5 ng/mL) or SB431542 (10 μM) (Right). (B) qPCR of Smad3 (CTGF and Smad7) and Smad2 (Goosecoid and MixL) responsive genes as in FIG. 3D. Data reflect mean+/−sd from three experiments. […] (E) AKR-2B cells were transiently transfected with a BMP (BRE), EGF (SRE), or PDGF (MMP-1) reporter construct and luciferase activity determined following 12 hour incubation in the absence (−) or presence (+) of the indicated ligand (10 ng/mL BMP4, EGF, or PDGF), inhibitor (10 μM Dorsomophin; 3 μM Lapatinib; 2 μM CP868) or TAT-SNX9(SH3) fusion polypeptide (1.5 μM). […]
Soft agar assays were performed as described elsewhere (Rahimi et al., Cancer Res., 69(1):84-93 (2009)). […] Following 7 days growth at 37° C., the number of colonies>100 μm in diameter were counted using an Optronix Gelcount™ (Oxford Optronics, Milton, Abingdon, UK). […]

For assay [2], the system named is Smad3 targets (PAI-1, CTGF, Smad7). Nature of the assay: RT-PCR/qPCR/Western of Smad3 responsive genes in AKR-2B cells. In kind it is cell-based. To be noted: 5 ng/mL TGFβ, 24 hours. Here is the method: FIGS. 2A-C. TAT-SH3 inhibits Smad3-dependent responses. (A) AKR-2B cells were transiently transfected with a Smad3 (3TP), Smad2 (ARE), or Smad1/5/8 (BRE) reporter construct, and luciferase activity determined following 12 hours incubation in the absence (−) or presence (+) of the indicated ligand (5 ng/mL TGFβ; 10 ng/mL BMP4) or TAT-SNX9(SH3) fusion polypeptide (1.5 μM). Data represent the mean+/−SEM of three experiments. (B) RT-PCR analysis of Smad3 (PAI-1 and CTGF) and Smad2 (MMP2) responsive gene following 24 hour treatment of AKR-2B cells with the indicated concentration of TAT-SNX9(SH3) fusion polypeptide or 5 ng/mL TGFβ. Loading was verified by GAPDH expression. (C) Soft agar colony formation was performed following seven days growth in the presence (+) or absence (−) of TGFβ (10 ng/mL) or the indicated TAT-SNX9(SH3) fusion polypeptide (1.5 μM). […]
FIGS. 3A-E. Inhibition of Smad3 signaling by a defined region of the SH3 domain in SNX9. […] (B) Nuclear fractions were prepared and assessed as in FIG. 1B following transduction with the indicated TAT-SNX9(SH3) fusion polypeptide (Left). Quantitation (mean+/−sd) of nuclear pSmad2 or pSmad3 from 2 experiments (Right). (C) Immunofluorescence of nuclear Smad3 was determined as in FIG. 1C from 30 cells in each of two experiments in the absence (−) or presence (+) of 5 ng/mL TGFβ and the indicated TAT-SNX9(SH3) fusion polypeptide (1.5 μM). […]

Entries after “also recorded” stand apart in the source; their conditions may differ.

Regarding “TAT-SH3-2M: TAT-SH3-2 with G to V point mutations at amino acids 36-38; inactive TAT-SNX9 peptide unable to bind pSmad3 (TVNEGEIITITNPDVVVVWLEGRNIKGERGL; left off: small tags and cut ends)”, the Smad3-regulated biological responses entry in assay [1] was “not inhibitory”. The “TGFβ induction of Smad3 targets / Smad3-dependent transcriptional responses” value in assay [2] is recorded as “abolished the inhibitory effect”.
Turning to “TAT-SH3-2: TAT-SNX9(SH3) fusion polypeptide having SNX9 amino acids 21-51 (31 mer) (TVNEGEIITITNPDVGGGWLEGRNIKGERGL; left off: small tags and cut ends)”, the Smad3-regulated biological responses result in assay [1] was “inhibitory”. Further, the “TGFβ induction of Smad3 targets / Smad3-dependent transcriptional responses” value in assay [2] is “prevented Smad3-dependent transcriptional responses; also recorded: prevented TGFβ induction of Smad3 targets such as CTGF, PAI-1, and Smad7 to a similar degree as inhibition of TβRI”.
